Assay results published in paper PMC8037182, “Solvothermal Synthesis of Multiple Dihydropyrimidinones at a Time as Inhibitors of Eg5” (Molecules, 2021).
Values joined by “and” are separate entries in the source; they are usually repeats but may differ in a detail not shown here. Equal entries are not always repeated.

System: L929 cell line
Assay: Cytotoxicity MTS assay, L929 cell line
Type: cell-based
Details: for OD490 values, Mean / OD490 values, Well 1 / OD490 values, Well 2 / OD490 values, Well 3 / OD490, single wells / OD490 Mean: L929 cell line; for IC50: MTS assay, 24 h exposure, ordinary fibroblast, not cancer cells; for OD490, single wells / OD490 Mean: MTS; for OD490, single wells: Well 1-3; for OD490 Mean: mean of 3 wells
How it was run: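 IC50 reflects non-linear regression of percent cell viability on compound concentration, tested from 0.5 to 100 µM final during a 24 h exposure. Viability was read by MTS at 490 nm; monastrol served as positive control and 0.025% DMSO as blank.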

`COC(=O)c1[nH]c(C2NC(=S)NC(C)=C2C(=O)c2ccccc2)c(C(=O)OC)c1C` (centres unmarked) [D14] was tested, and the “OD490 values, Mean” value (1μM, first assay) was 1.2798, the “OD490 values, Well 1” value (1μM, first assay) was 1.2932 and the “OD490 values, Well 2” value (1μM, first assay) was 1.2928. The “OD490 values, Well 3” value (1μM, first assay) was 1.2533, the “OD490 values, Mean” value (1μM, second assay) was 1.4907 and the “OD490 values, Well 1” value (1μM, second assay) was 1.4325. The “OD490 values, Well 2” value (1μM, second assay) was 1.3987, the “OD490 values, Well 3” value (1μM, second assay) was 1.6410 and the “OD490 values, Mean” value (1μM, third assay) was 1.6023. The “OD490 values, Well 1” value (1μM, third assay) was 1.5874, the “OD490 values, Well 2” value (1μM, third assay) was 1.6622 and the “OD490 values, Well 3” value (1μM, third assay) was 1.5574. The “OD490 values, Mean” value (1.5μM, first assay) was 1.2729, the “OD490 values, Well 1” value (1.5μM, first assay) was 1.2563 and the “OD490 values, Well 2” value (1.5μM, first assay) was 1.3177. The “OD490 values, Well 3” value (1.5μM, first assay) was 1.2448, the “OD490 values, Mean” value (1.5μM, second assay) was 1.4657 and the “OD490 values, Well 1” value (1.5μM, second assay) was 1.4258. For the same compound, the “OD490 values, Well 2” value (1.5μM, second assay) was 1.4302, the “OD490 values, Well 3” value (1.5μM, second assay) was 1.5412 and the “OD490 values, Mean” value (1.5μM, third assay) was 1.5678. For the same compound, the “OD490 values, Well 1” value (1.5μM, third assay) was 1.5254, the “OD490 values, Well 2” value (1.5μM, third assay) was 1.5988 and the “OD490 values, Well 3” value (1.5μM, third assay) was 1.5793. The “OD490 values, Mean” value (10μM, first assay) was 1.2551, the “OD490 values, Well 1” value (10μM, first assay) was 1.2039 and the “OD490 values, Well 2” value (10μM, first assay) was 1.3650. The “OD490 values, Well 3” value (10μM, first assay) was 1.1963, the “OD490 values, Mean” value (10μM, second assay) was 1.4237 and the “OD490 values, Well 1” value (10μM, second assay) was 1.3365. The “OD490 values, Well 2” value (10μM, second assay) was 1.5325, the “OD490 values, Well 3” value (10μM, second assay) was 1.4022 and the “OD490 values, Mean” value (10μM, third assay) was 1.5660. For the same compound, the “OD490 values, Well 1” value (10μM, third assay) was 1.5254, the “OD490 values, Well 2” value (10μM, third assay) was 1.6200 and the “OD490 values, Well 3” value (10μM, third assay) was 1.5525. The “OD490 values, Mean” value (25μM, first assay) was 1.1670, the “OD490 values, Well 1” value (25μM, first assay) was 1.1764 and the “OD490 values, Well 2” value (25μM, first assay) was 1.2795. For the same compound, the “OD490 values, Well 3” value (25μM, first assay) was 1.0451, the “OD490 values, Mean” value (25μM, second assay) was 1.2993 and the “OD490 values, Well 1” value (25μM, second assay) was 1.3065. For the same compound, the “OD490 values, Well 2” value (25μM, second assay) was 1.2547, the “OD490 values, Well 3” value (25μM, second assay) was 1.3366 and the “OD490 values, Mean” value (25μM, third assay) was 1.5294. For the same compound, the “OD490 values, Well 1” value (25μM, third assay) was 1.4424, the “OD490 values, Well 2” value (25μM, third assay) was 1.5235 and the “OD490 values, Well 3” value (25μM, third assay) was 1.6222. The “OD490 values, Mean” value (50μM, first assay) was 1.0826, the “OD490 values, Well 1” value (50μM, first assay) was 0.8914 and the “OD490 values, Well 2” value (50μM, first assay) was 1.1616. The “OD490 values, Well 3” value (50μM, first assay) was 1.1948, the “OD490 values, Mean” value (50μM, second assay) was 1.1536 and the “OD490 values, Well 1” value (50μM, second assay) was 1.1241. For the same compound, the “OD490 values, Well 2” value (50μM, second assay) was 1.2101, the “OD490 values, Well 3” value (50μM, second assay) was 1.1265 and the “OD490 values, Mean” value (50μM, third assay) was 1.3855. For the same compound, the “OD490 values, Well 1” value (50μM, third assay) was 1.3665, the “OD490 values, Well 2” value (50μM, third assay) was 1.3874 and the “OD490 values, Well 3” value (50μM, third assay) was 1.4025. For the same compound, the “OD490 values, Mean” value (100μM, first assay) was 1.0433, the “OD490 values, Well 1” value (100μM, first assay) was 0.7506 and the “OD490 values, Well 2” value (100μM, first assay) was 1.0796. The “OD490 values, Well 3” value (100μM, first assay) was 1.2998, the “OD490 values, Mean” value (100μM, second assay) was 1.1143 and the “OD490 values, Well 1” value (100μM, second assay) was 1.1121. For the same compound, the “OD490 values, Well 2” value (100μM, second assay) was 1.1285, the “OD490 values, Well 3” value (100μM, second assay) was 1.1022 and the “OD490 values, Mean” value (100μM, third assay) was 1.3039. For the same compound, the “OD490 values, Well 1” value (100μM, third assay) was 1.3251, the “OD490 values, Well 2” value (100μM, third assay) was 1.3325 and the “OD490 values, Well 3” value (100μM, third assay) was 1.2542. The IC50 was 137 µM.

With `CCOC(=O)C1=C(C)NC(=S)NC1c1cccc(O)c1` (centres unmarked) [Monastrol, monastrol, reference compound] the “OD490 values, Mean” value (50μM, first assay) was 1.3431, the “OD490 values, Well 1” value (50μM, first assay) was 1.3844 and the “OD490 values, Well 2” value (50μM, first assay) was 1.2943. For the same compound, the “OD490 values, Well 3” value (50μM, first assay) was 1.3505, the “OD490 values, Mean” value (50μM, second assay) was 1.3490 and the “OD490 values, Well 1” value (50μM, second assay) was 1.3355. For the same compound, the “OD490 values, Well 2” value (50μM, second assay) was 1.2894, the “OD490 values, Well 3” value (50μM, second assay) was 1.4221 and the “OD490 values, Mean” value (50μM, third assay) was 1.5704. For the same compound, the “OD490 values, Well 1” value (50μM, third assay) was 1.5524, the “OD490 values, Well 2” value (50μM, third assay) was 1.4714 and the “OD490 values, Well 3” value (50μM, third assay) was 1.6874. For the same compound, the “OD490 values, Mean” value (100μM, first assay) was 1.0251, the “OD490 values, Well 1” value (100μM, first assay) was 1.0639 and the “OD490 values, Well 2” value (100μM, first assay) was 1.0037. The “OD490 values, Well 3” value (100μM, first assay) was 1.0076, the “OD490 values, Mean” value (100μM, second assay) was 1.2469 and the “OD490 values, Well 1” value (100μM, second assay) was 1.2354. The “OD490 values, Well 2” value (100μM, second assay) was 1.2789, the “OD490 values, Well 3” value (100μM, second assay) was 1.2265 and the “OD490 values, Mean” value (100μM, third assay) was 1.4401. The “OD490 values, Well 1” value (100μM, third assay) was 1.4541, the “OD490 values, Well 2” value (100μM, third assay) was 1.4710 and the “OD490 values, Well 3” value (100μM, third assay) was 1.3952. The “OD490, single wells” value (1μM, first assay) was 1.2759 and 1.1464 and 1.2212, the “OD490 Mean” value (1μM, first assay) was 1.2145 and the “OD490, single wells” value (1μM, second assay) was 1.3847 and 1.2145 and 1.3654. The “OD490 Mean” value (1μM, second assay) was 1.3215, the “OD490, single wells” value (1μM, third assay) was 1.5474 and 1.5368 and 1.4987 and the “OD490 Mean” value (1μM, third assay) was 1.5276. For the same compound, the “OD490, single wells” value (1.5μM, first assay) was 1.1568 and 1.0812 and 1.2095, the “OD490 Mean” value (1.5μM, first assay) was 1.1492 and the “OD490, single wells” value (1.5μM, second assay) was 1.2478 and 1.3254 and 1.2897. For the same compound, the “OD490 Mean” value (1.5μM, second assay) was 1.2876, the “OD490, single wells” value (1.5μM, third assay) was 1.5823 and 1.5874 and 1.5332 and the “OD490 Mean” value (1.5μM, third assay) was 1.5676. The “OD490, single wells” value (10μM, first assay) was 1.1741 and 1.1023 and 1.0651, the “OD490 Mean” value (10μM, first assay) was 1.1138 and the “OD490, single wells” value (10μM, second assay) was 1.3582 and 1.6874 and 1.3354. For the same compound, the “OD490 Mean” value (10μM, second assay) was 1.4603, the “OD490, single wells” value (10μM, third assay) was 1.4784 and 1.4585 and 1.6874 and the “OD490 Mean” value (10μM, third assay) was 1.5414. For the same compound, the “OD490, single wells” value (25μM, first assay) was 1.2192 and 1.1415 and 1.0377, the “OD490 Mean” value (25μM, first assay) was 1.1328 and the “OD490, single wells” value (25μM, second assay) was 1.2214 and 1.3652. The “OD490 Mean” value (25μM, second assay) was 1.3173, the “OD490, single wells” value (25μM, third assay) was 1.6324 and 1.5241 and 1.7241 and the “OD490 Mean” value (25μM, third assay) was 1.6269. It also gave an IC50 (Mus musculus, L929) greater than 150 µM.
